According to patent US20230416676A1, “Method for Reprogramming Cell” (Celpaten Consulting Partnership (Limited Partnership), priority 2020, published 2023):

System: Wnt1-tdTomato- MEFs
Assay: Conversion of MEFs into ciNCCs with M6 medium (Wnt1-tdTomato lineage tracing)
Type: cell-based, mouse
Settings: added to Chir99021, SB431542 and forskolin (FIG. 8C)
Protocol: The basal medium contained knockout DMEM (Gibco), 10% KSR (Gibco), 10% FBS (Gibco), 1% NEAA (Gibco), and 0.1 mM 2-mercaptoethanol (Gibco) supplemented with the small molecules CHIR99021 (3 μM), SB431542 (5 μM), Forskolin (10 μM), VPA ([…]), EPZ004777 (5 μM), and 5-Aza-dC (0.5 μM). The medium was shaken for 30 min to ensure that all components were fully dissolved.
The MEFs were plated at 5×10^4 cells per well on six-well tissue culture plates in fibroblast medium. The culture plates were precoated with fibronectin or laminin for more than 2 hours. After overnight culture, the medium was exchanged with M6 chemical medium, which was refreshed every 2 days. NCC-like cells appeared and increased at days 3 to 5. After 7 to 10 days of induction, FACS was performed to collect Wnt1^+ cells.
For corneal endothelium is derived from NCCs, a two-step method for reprogramming mouse fibroblasts into CEC-like cells using small molecules was designed, in which the first step was to guide mouse embryonic fibroblasts (MEFs) to be chemically reprogrammed into ciNCCs. To identify small molecules with the potential to convert fibroblasts into ciNCCs, we used a lineage tracing strategy to trace the conversion process and excluded any NCCs or progenitor cells from the starting MEFs (FIGS. 8A and 15A). Wnt1-Cre transgenic mice have been validated as a lineage-tracing reporter model for NCC development. In Wnt1-Cre/ROSA26tdTomato mice, tdTomato protein was faithfully expressed in NCCs. MEFs were thus isolated from Wnt1-Cre/ROSA26tdTomato mice at embryonic day 13.5 (E13.5). Because the NCC population was marked with tdTomato, we performed fluorescence-activated cell sorting (FACS) to collect the tdTomato^− population to exclude any NCCs or progenitors (the purified cells are hereinafter referred to as Wnt1-tdTomato-MEFs; FIG. 15B). We confirmed that the Wnt1-tdTomato^− MEFs were also negative for other NCC markers, including Sox10, P75, Pax3, HNK1, and AP2α (FIGS. 15C and 15D). Further, these Wnt1-tdTomato^− MEFs were negative for typical NSC markers, including Sox2, Pax6 and Nestin (data not shown). […]

Compound	effect of individual chemical on induction of Wnt1-tdTomato+ cells
CC(C)N(CCCNC(=O)Nc1ccc(C(C)(C)C)cc1)C[C@H]1O[C@@H](n2ccc3c(N)ncnc32)[C@H](O)[C@@H]1O [EPZ004777]	further promoted induction of Wnt1-tdTomato^+ cells
CCCC(CCC)C(=O)O [VPA, Valproic acid]	further promoted induction of Wnt1-tdTomato^+ cells
Nc1ncn([C@H]2C[C@H](O)[C@@H](CO)O2)c(=O)n1 [5-Aza-dC]	further promoted induction of Wnt1-tdTomato^+ cells
